Results published in article PMC4995014, “Identification of ABC Transporter Interaction of a Novel Cyanoquinoline Radiotracer and Implications for Tumour Imaging by Positron Emission Tomography” (PLoS ONE, 2016).

Columns and labels:
[1] = molecular target: T1, EGFR Del E746-A750/T790M (PC9ER cells) (Homo sapiens, UniProt P00533, DEL746-750/T790M); experiment: Inhibition of EGFR autophosphorylation (p-EGFR Y1068, western blot) in PC9ER cells; type: cell-based
T1 construct: endogenous in cells; host or cells: PC9ER (Dr Olivier Pardo, Imperial College London)
Experimental: (§1) Affinity of the cyanoquinolines for EGFR was established by measuring their inhibition of EGFR autophosphorylation via western blot. Cells were seeded in 6 well plates and following 24 h of growth, were subject to overnight serum starvation. The cells were then treated with increasing concentrations of cyanoquinolines prepared in serum free growth media from a DMSO stock (final DMSO concentration < 1%) for 3 h at 37°C, and stimulated for receptor autophosphorylation by addition of 100 ng/mL of EGF during the last 15 minutes of drug incubation. After 3 h the cells were placed on ice, media removed and then the cells were washed two times with ice cold phosphate buffered saline (PBS). Lysates were analysed by western blot to measure changes to p-EGFR Y1068.
(§2) Cells were collected into a microcentrifuge tube and sonicated for 30 seconds on ice. Cellular protein levels were assessed using a bicinchoninic acid (BCA) protein assay kit according to the manufacturer’s instructions (Thermo scientific). […] Samples were transferred to polyvinylidene difluoride (PVDF) membrane using Trans-Blot Turbo system BIO-RAD (Hercules, California, USA). […] The membranes were then incubated overnight with primary antibody prepared in 1% milk or 1% BSA in TBST. […] Membranes were washed a further three times for 10 minutes with TBST. Blots were visualised using chemoluminescence (ECL, GE Healthcare, Little Chalfont, UK) and developed on Amersham Hyperfilm ECL (GE Healthcare). β-Actin was used as a loading control.

[2] = molecular target: T2, EGFR Del E746-A750 (PC9 cells) (Homo sapiens, UniProt P00533, DEL746-750); experiment: Inhibition of EGFR autophosphorylation (p-EGFR Y1068, western blot) in PC9 cells; type: cell-based; conditions: 3 h incubation, densitometry of western blots
T2 construct: endogenous in cells; host or cells: PC9 (Dr Olivier Pardo, Imperial College London)
Experimental: as §1
as §2, with “Blots were visualised using chemoluminescence (ECL, GE Healthcare, Little Chalfont, UK) and developed on Amersham Hyperfilm ECL (GE Healthcare). β-Actin was used as a loading control.” left out

[3] = molecular target: T3, EGFR L858R/T790M (H1975 cells) (Homo sapiens, UniProt P00533, L858R/T790M); experiment: Inhibition of EGFR autophosphorylation (p-EGFR Y1068, western blot) in H1975 cells; type: cell-based; conditions: 3 h incubation, EGF stimulated
T3 construct: host or cells: H1975
Experimental: as §1
as §2, with “Blots were visualised using chemoluminescence (ECL, GE Healthcare, Little Chalfont, UK) and developed on Amersham Hyperfilm ECL (GE Healthcare). β-Actin was used as a loading control.” left out

Caco2 transwell assay = type: in vitro ADME, human; conditions: human, Caco-2, with verapamil 10 mg/mL, pre-treatment for 1 h, pre-treatment with 10 mg/mL verapamil for 1 h; read-out: efflux ratio in the presence of verapamil
Experimental: The caco2 transwell assay was performed to assess permeability. Cells were seeded at a density of 60,000 cells per well in 24 well transwell plates (Millipore, Billerica, Massachutsetts, USA), and maintained in DMEM supplemented with […] glucose (20% FBS, 1% penicillin/streptomycin, 1% glutamine) for 21 days at 37°C in 5% CO2. After 21 days the cells differentiate into enterocytes and express all three MDR proteins, ABCB1 and ABCG2 at the apical side and ABCC1 on the basal side. On day 21, cells were washed three times with Hank's Balanced Salt Solution (HBSS) (Fisher scientific, Loughborough, UK) and the trans-epithelial electric resistance (TERR) was measured using an Epithelial Voltohmmeter (EVOM) (World Precision Instruments, Sarasota, USA); only transwells with TERR of 400 Ω/cm^2 or above were used for the experiment. Cells were treated either at the apical (n = 3) or basal (n = 3) side of the transwell by addition of 10 μM of cyanoquinoline compound or 50 μM vinblastine prepared in a volume of 400 μL HBSS (compound added to apical well) or 800 μL of HBSS (added to basal well). When transport inhibitors FTC (10 μM) or zosuquidar (0.3 μM) were used, they were added to both the apical and basal wells 1 h prior to drug treatment. After 1 h pre-treatment the medium was removed and cells were treated with the compounds prepared in HBSS containing FTC or Zosuquidar.
Plates were incubated in shaker incubator at 37°C and 60 rpm for 120 min. After incubation, 200 μL aliquots from the apical and the basal wells were collected and analysed using high performance liquid chromatography (HPLC). Samples were run on a Millipore Waters HPLC system which included a 717 plus autosampler and 2487 dual wavelength absorbance detector system. The stationary phase comprised of a Phenomenex Luna C18 reverse phase column (150 X 4.6 mm; 5 μm particle size). The mobile phase comprised water (0.1% TFA) and acetonitrile (0.1% TFA) (80:20 v/v) at a flow rate of 1 mL/min for all compounds except vinblastine. For vinblastine, the stationary phase comprised a Supelcosil LC-ABZ reverse phase column (5 × 4.6 mm; 5 μm particle size). The mobile phase comprised water (0.1% formic acid) and methanol (90:10 to 10:90 v/v gradient over 20 min). Peak areas corresponding to the compounds of interest were recorded. Using standard curves the areas under the curve were converted into concentrations of compound. The permeability coefficient (Papp) was calculated using the following equation [30]: Papp = (dQ/dt)/A C0, where A is the surface area of the transwell membrane in cm^2 (= 0.33 cm^2), C0 is the drug concentration in the donor chamber at time t = 0 and dQ/dt is the rate of transfer of the compound to the receiver chamber, determined from the slope of the graph concentration (dQ) versus time (dt). Papp values corresponding to absorption and secretion were assessed and used to calculate efflux ratio. Efflux ratio =(Papp B−A)/(Papp A−B) Where Papp A-B = Papp absorption and Papp B-A = Papp secretion.
The integrity of the caco2 cell membrane was assessed for each well following the experiment by addition of a 100 μM solution of […] (Sigma) in HBSS to the apical side of the plate. The plates were placed in the shaker incubator for 1 h at 37°C and 60 rpm. Samples from the basal wells were transferred into a 96 well plate and the levels of […] were assessed by measuring with an excitation of 450 nm and an emission of 540 nm using the PerkinElmer Wallac 1420 counter.

T1 sequence (P00533 with tags, fused parts or gaps DEL746-750/T790M): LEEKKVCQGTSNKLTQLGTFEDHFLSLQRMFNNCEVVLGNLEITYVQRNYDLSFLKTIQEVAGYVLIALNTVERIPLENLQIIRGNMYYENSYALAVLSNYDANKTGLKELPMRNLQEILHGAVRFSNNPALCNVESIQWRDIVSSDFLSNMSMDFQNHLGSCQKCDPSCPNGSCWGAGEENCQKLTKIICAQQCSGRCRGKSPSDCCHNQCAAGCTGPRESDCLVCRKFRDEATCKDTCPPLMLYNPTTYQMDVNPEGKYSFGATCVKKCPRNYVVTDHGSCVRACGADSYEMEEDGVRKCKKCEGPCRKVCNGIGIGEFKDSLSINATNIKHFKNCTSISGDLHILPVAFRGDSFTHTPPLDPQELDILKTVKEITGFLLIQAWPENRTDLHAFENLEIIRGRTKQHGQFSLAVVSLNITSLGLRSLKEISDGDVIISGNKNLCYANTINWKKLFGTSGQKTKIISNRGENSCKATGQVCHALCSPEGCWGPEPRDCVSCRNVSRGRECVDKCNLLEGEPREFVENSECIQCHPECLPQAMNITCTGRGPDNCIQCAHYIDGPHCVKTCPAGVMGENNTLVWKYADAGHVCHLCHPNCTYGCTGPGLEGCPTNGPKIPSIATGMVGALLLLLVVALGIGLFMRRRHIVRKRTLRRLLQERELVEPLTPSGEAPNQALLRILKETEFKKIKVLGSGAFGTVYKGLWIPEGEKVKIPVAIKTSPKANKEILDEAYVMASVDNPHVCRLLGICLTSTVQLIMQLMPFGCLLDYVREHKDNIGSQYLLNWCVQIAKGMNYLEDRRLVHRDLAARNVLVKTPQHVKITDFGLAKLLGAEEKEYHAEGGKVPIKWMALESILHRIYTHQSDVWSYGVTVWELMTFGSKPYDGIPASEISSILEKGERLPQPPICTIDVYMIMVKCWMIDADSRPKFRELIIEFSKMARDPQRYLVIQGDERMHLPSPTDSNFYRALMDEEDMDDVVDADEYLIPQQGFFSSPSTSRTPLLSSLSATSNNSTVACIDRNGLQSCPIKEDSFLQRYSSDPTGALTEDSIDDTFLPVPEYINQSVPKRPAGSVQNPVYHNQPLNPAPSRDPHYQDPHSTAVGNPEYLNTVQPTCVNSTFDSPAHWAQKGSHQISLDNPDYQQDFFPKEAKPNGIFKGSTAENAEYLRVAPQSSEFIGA
T2 sequence (P00533 with tags, fused parts or gaps DEL746-750): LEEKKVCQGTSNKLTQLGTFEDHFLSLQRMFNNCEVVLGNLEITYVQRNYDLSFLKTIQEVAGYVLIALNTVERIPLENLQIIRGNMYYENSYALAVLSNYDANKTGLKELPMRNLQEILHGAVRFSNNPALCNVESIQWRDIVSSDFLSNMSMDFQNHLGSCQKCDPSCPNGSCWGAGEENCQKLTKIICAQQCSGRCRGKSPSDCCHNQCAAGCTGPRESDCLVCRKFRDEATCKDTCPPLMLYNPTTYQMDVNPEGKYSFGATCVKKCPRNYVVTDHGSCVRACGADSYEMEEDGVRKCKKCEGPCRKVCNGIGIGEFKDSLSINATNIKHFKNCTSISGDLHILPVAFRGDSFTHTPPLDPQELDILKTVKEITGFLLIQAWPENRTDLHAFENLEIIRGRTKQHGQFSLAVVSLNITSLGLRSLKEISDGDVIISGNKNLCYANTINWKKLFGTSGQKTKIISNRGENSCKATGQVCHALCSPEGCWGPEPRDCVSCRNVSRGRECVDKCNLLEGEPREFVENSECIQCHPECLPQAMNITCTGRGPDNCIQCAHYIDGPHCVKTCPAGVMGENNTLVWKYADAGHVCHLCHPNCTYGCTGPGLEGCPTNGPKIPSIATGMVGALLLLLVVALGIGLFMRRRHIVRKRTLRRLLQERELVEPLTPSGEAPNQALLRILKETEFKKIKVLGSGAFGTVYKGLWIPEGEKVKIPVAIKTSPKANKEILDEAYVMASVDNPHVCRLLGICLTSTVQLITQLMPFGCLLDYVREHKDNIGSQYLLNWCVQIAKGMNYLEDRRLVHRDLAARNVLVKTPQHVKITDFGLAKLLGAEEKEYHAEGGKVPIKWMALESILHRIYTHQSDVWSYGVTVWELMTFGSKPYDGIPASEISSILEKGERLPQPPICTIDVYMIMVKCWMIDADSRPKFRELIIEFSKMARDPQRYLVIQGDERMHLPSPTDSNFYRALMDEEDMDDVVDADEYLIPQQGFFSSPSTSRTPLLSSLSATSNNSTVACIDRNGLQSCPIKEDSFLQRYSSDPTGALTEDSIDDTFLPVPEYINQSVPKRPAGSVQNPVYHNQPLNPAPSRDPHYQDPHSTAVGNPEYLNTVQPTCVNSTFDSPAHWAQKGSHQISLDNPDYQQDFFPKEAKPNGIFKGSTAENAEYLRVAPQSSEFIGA
T3 sequence (P00533 25-1210 T790M/L858R): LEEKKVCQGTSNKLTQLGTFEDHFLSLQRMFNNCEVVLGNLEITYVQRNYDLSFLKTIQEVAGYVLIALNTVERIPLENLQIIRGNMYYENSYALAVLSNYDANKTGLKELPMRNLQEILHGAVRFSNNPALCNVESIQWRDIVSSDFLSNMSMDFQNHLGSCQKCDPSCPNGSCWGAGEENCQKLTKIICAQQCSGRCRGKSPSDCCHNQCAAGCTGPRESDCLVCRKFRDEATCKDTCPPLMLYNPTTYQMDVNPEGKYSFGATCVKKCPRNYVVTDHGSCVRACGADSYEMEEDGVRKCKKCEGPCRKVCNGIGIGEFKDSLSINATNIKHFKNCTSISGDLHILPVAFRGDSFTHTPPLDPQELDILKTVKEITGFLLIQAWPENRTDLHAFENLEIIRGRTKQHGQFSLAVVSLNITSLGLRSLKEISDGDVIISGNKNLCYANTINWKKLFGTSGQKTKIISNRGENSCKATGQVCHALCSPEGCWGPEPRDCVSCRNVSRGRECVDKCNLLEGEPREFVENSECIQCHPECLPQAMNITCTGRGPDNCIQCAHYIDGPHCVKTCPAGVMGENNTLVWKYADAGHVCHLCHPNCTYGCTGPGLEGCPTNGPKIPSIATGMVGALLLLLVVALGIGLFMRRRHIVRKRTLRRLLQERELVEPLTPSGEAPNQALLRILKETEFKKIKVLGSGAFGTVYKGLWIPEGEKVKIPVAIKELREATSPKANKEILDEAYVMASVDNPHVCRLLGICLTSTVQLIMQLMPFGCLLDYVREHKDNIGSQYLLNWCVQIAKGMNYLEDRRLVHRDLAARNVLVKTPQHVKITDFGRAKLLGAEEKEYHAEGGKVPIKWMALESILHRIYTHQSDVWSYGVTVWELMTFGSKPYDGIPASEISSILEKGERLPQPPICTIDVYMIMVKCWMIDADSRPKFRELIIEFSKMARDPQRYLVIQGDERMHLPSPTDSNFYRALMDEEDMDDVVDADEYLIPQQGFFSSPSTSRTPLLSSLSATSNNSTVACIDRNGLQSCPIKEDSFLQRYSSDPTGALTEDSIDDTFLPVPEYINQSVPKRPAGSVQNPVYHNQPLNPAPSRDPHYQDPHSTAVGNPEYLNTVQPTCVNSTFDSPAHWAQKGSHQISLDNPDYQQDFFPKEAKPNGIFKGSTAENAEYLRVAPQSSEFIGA

For `CCOc1cc2ncc(C#N)c(Nc3ccc(F)c(Cl)c3)c2cc1NC(=O)/C=C/CNCc1cn(CCF)nn1` [FED6, (2E)-N-{4-[(3-chloro-4-fluorophenyl)amino]-3-cyano-7-ethoxyquinolin-6-yl}-4-({[1-(2-fluoroethyl)-1H-1,2,3-triazol-4-yl]methyl}amino)-but-2-enamide], which IC50 ([1]; 3 h incubation, EGF stimulated) is on record?
The IC50 was 45 nM.

And the “fold higher IC50 (p-EGFR) in PC9ER compared to PC9” value ([1]; PC9ER versus isogenic PC9)?
Its value is 2 fold.

And the IC50 [2]?
Its IC50 is 22 nM.

What about the IC50 [3] of the same compound?
The IC50 was greater than 1000 nM.

And the efflux ratio at 120 min, 10 μM (Caco2 transwell assay)?
Its efflux ratio at 120 min, 10 μM is 1.1.
